Consider one substance from patent publication US20170121402A1, “ORAL COMPOSITION OF ANTI-TNF ALPHA ANTIBODIES” (Laboratoire Français du Fractionnement et des …, priority 2014, published 2017).

The test system of the experiment is interleukin-8 (IL-8) secretion by Caco-2 cells. Kind of experiment: Anti-inflammatory effect on the Caco-2 line: IL-8 secretion after IL-1 beta activation, ELISA. The experiment is classed as cell-based, human. The note with it: differentiated Caco-2 cells (14 days), 24 h preculture with test agent, then 1 ng/ml IL-1 beta for 12 hours. The source says: Caco-2 cells, a colon cancer cell line, are an established cell model of the human intestinal epithelium (Pinto et al., 1983, Biol. Cell, 47, 323-330). These cells secrete interleukin-8 (IL-8), which is one of the major interleukins in the pathogenesis of inflammatory bowel diseases, after activation by interleukin-1 beta (IL-1 beta).
The inventors used the Caco-2 cell line as a model of epithelial cells, and evaluated the effect of compositions according to the invention on interleukin-8 (IL-8) secretion by these cells after activation by interleukin-1 beta (IL-1 beta).
To that end, Caco-2 cells, deposited in 24well plates, were cultured for 14 days until the cells were confluent and in a stable differentiation state. On day 14, the cells were precultured in the presence of caprylic acid, transgenically-produced anti-TNF antibody (adalimumab), and a combination of the two. Twenty-four hours later, the cells were stimulated with 1 ng/ml IL-1 beta for 12 hours. IL-8 levels present in the culture supernatants were measured by ELISA.
(ELISA stands for enzyme-linked immunosorbent assay.)

Take adalimumab [anti-TNF antibody]: the “IL-8 levels present in the culture supernatants (IL-8 secretion)” value is “induces a decrease in IL-8 levels”.
